Holding throughout (assay type): physicochemical
A short description of data set [1]: absorbance characteristic before and after laser beam irradiation (photochemical reaction / degeneration). Here is the method:
(§1) The absorbance characteristic of the solution was measured by using a general-purpose spectrophotometer (HITACHI U-3500). […] The optical path length was set to 10 mm for the measurement.

Data set [2] is described as follows: observation of apparent dissolution in water after laser fine pulverization. Here is the method: Subsequently, carbamazepine was suspended in water so that the concentration thereof was equal to 2 mg/ml, thereby preparing suspended liquid, and triple higher harmonics of YAG laser ([…], FWHM=4 ns, 20 Hz, irradiation time: 15 minutes) was irradiated to the suspended liquid.

The nature of data set [3]: particle diameter estimated from the absorbance characteristic after fine pulverization. Particulars: for particle diameter after fine pulverization treatment: 355 nm, 310 mJ/cm^2Pulse. The text has this: The measured value (R) of the absorbance measured by the general-purpose spectrophotometer contains the light absorption (A1) of finely-pulverized carbamazepine itself, the light scattering (S) and the light absorption (A2) of the added surfactant. A1 represents the fine pulverization state of carbamazepine, and it is estimated that the average particle diameter of carbamazepine is smaller as the light absorption is larger. Therefore, in order to estimate the particle diameter of carbamazepine after the treatment, with respect to the absorbance on the ordinate axis in FIG. 8, the increment (S) of the absorbance by the light scattering at each wavelength is approximated to the measured value (S1) of 500 nm at which carbamazepine has no absorption, and the measured value R of the absorbance is corrected to the absorbance A1 by using the operation of A1≈R−A2-S1.
The absorbance characteristic after the laser beam irradiation was measured in the same manner as example 3. In FIG. 9, the solid line represents the absorbance characteristic of the treatment target liquid using the surfactant liquid having the concentration of 1/1000, the one-dot-dashed line represents the absorbance characteristic of the treatment target liquid using the surfactant liquid having the concentration of 1/100, and the two-dot-dashed line represents the absorbance characteristic of the treatment target liquid using the surfactant liquid having the concentration of 1/10. The dashed line represents the absorbance characteristic of the treatment target liquid using no surfactant.

Data set [4] is described as follows: variation of the absorbance characteristic of the finely-pulverized solution with time lapse after laser beam irradiation (dispersion stability). Particulars: finely-pulverized solution in water (355 nm, 380 mJ/cm^2Pulse, 15 minutes), after six days. Here is the method:
as §1
The absorbance characteristic indicated by the dashed line is the one before laser beam irradiation.

The nature of data set [5]: purity after fine pulverization treatment by HPLC, laser beam wavelength dependence. Particulars: one hour. As to the method: In this example, fine pulverization of clobetasone butyrate as adrenal cortex hormone of hardly-soluble medicament was attempted. […] A stirring magnet stick for stirring the liquid was put in the square cell so that a laser beam was uniformly irradiated to the suspended liquid. The temperature of the suspended liquid was set to room temperature of 25° C. at all times except for a temperature dependence test.
In this example, a continuously wavelength-variable OPO parametric oscillator was used as a light source for fine pulverization because the wavelength dependence of the fine pulverization and photochemical reaction by laser beam irradiation was required to be investigated. The pulse width of the irradiation laser beam was set to FWHM 4 ns, and the repetition frequency was set to 10 Hz.
Subsequently, the irradiation wavelength of the laser beam was varied and the test was carried out.

Each structure is given as a SMILES string.

With `NC(=O)N1c2ccccc2C=Cc2ccccc21` [carbamazepine], the “photochemical reaction on laser beam irradiation” value was “no photochemical reaction is induced” in data set [1] (1 mg/ml suspended in water, 355 nm, 310 mJ/cm^2Pulse, 15 minutes, with and without surfactant Tween20); “little photochemical reaction occurred” in data set [1] (2 mg/ml suspended in water, 355 nm, 430 mJ/cm^2Pulse, 15 minutes). Moreover, the “dissolution when suspended in pure water” value in data set [2] (precipitate after laser treatment (355 nm, 430 mJ/cm^2Pulse, 15 minutes)) is “instantaneously dissolved”; in data set [2] (sample before the treatment) it was “hardly dissolved”. For the same compound, in data set [3] (15 minutes, 1 mg/ml in water), the “particle diameter after fine pulverization treatment” value is listed as “sub-micron or less”.

As to `CCCC(=O)O[C@]1(C(=O)CCl)[C@H](C)C[C@@H]2[C@@H]3CCC4=CC(=O)C=C[C@]4(C)[C@]3(F)C(=O)C[C@@]21C` [clobetasone butyrate], the “precipitation caused by the aggregation of fine particles” value in data set [4] is given as “rarely observed”. Besides, the “degeneration after the treatment” value in data set [1] (355 nm treatment, UV absorption curves just after the treatment and after six days) is listed as “no degeneration occurred”. Besides, the “photochemical reaction on laser beam irradiation” value in data set [1] (Kr-F laser 248 nm, otherwise as example 1) is recorded as “some photochemical reaction occurs”. Moreover, the “appearance of the solution after the laser beam irradiation” value in data set [2] (water, 355 nm, 380 mJ/cm^2Pulse) was “transparent”. Further, the “degree of fine pulverization of the suspended liquid” value in data set [3] (0.5 mg/ml in water, YAG pulse laser 1064 nm, 1700 mJ/cm^2 per pulse, one hour) is recorded as “sub-micrometer order”. Besides, the “particle diameter after fine pulverization treatment” value in data set [3] (with added surfactant Tween20) is listed as “sub-micron or less”. The “purity after fine pulverization treatment (HPLC)” value in data set [5] (laser beam wavelength 500 nm or less) is “degradation is also small”; in data set [5] (laser beam wavelength 500 to 800 nm), “great degradation of the purity”.

Values taken from patent publication US20060257489A1, “Fine particles, method and device for preparation thereof, and agent for parenteral injection and method for production thereof” (priority 2003, published 2006).
